Test system: MV-4-11 cells
Assay: Gene expression microarray analysis (Affymetrix PrimeView) and GSEA
Assay type: cell-based, human
Set-up: RFU PODN (11730768_x_at) / Fold change /veh PODN (11730768_x_at) / RFU LINC00158 (11744669_a_at) / Fold change /veh LINC00158 (11744669_a_at) / RFU DUSP10 (11751237_a_at) / Fold change /veh DUSP10 (11751237_a_at) / RFU ID3 (11757404_x_at) / Fold change /veh ID3 (11757404_x_at) / RFU PLEKHG5 (11737974_s_at) / Fold change /veh PLEKHG5 (11737974_s_at) / RFU LRRC4B (11730491_at) / Fold change /veh LRRC4B (11730491_at) / RFU GIMAP4 (11747438_a_at) / Fold change /veh GIMAP4 (11747438_a_at) / RFU KRT8 (11758183_x_at) / Fold change /veh KRT8 (11758183_x_at) / RFU CNN1 (11734310_a_at) / Fold change /veh CNN1 (11734310_a_at) / RFU VPS37D (11726825_at) / Fold change /veh VPS37D (11726825_at) / RFU C10orf10 (11716522_x_at) / Fold change /veh C10orf10 (11716522_x_at) / RFU KIR2DL2 /// KIR2DL4 /// KIR2DL5A /// KIR2DL5B /// KIR2DS1 /// KIR2DS2 /// KIR2DS3 /// KIR2DS4 /// KIR3DL3 /// KIR3DL3 /// KIR3DS1 (11738374_at) / Fold change /veh KIR2DL2 /// KIR2DL4 /// KIR2DL5A /// KIR2DL5B /// KIR2DS1 /// KIR2DS2 /// KIR2DS3 /// KIR2DS4 /// KIR3DL3 /// KIR3DL3 /// KIR3DS1 (11738374_at) / RFU C1QL1 (11718748_at) / Fold change /veh C1QL1 (11718748_at) / RFU TMPRSS4 (11747572_a_at) / Fold change /veh TMPRSS4 (11747572_a_at) / RFU HAMP (11756126_x_at) / Fold change /veh HAMP (11756126_x_at) / RFU RNFT2 (11725882_a_at) / Fold change /veh RNFT2 (11725882_a_at) / RFU NR4A2 (11747474_a_at) / Fold change /veh NR4A2 (11747474_a_at) / RFU ABCC12 (11746883_a_at) / Fold change /veh ABCC12 (11746883_a_at) / RFU TMEM136 (11760407_x_at) / Fold change /veh TMEM136 (11760407_x_at) / RFU CLDN22 /// WWC2 (11732394_at) / Fold change /veh CLDN22 /// WWC2 (11732394_at) / RFU HLA-DPB1 (11760878_x_at) / Fold change /veh HLA-DPB1 (11760878_x_at) / RFU SPINT1 (11716480_a_at) / Fold change /veh SPINT1 (11716480_a_at) / RFU GAP43 (11754022_s_at) / Fold change /veh GAP43 (11754022_s_at) / RFU A4GNT (11735810_at) / Fold change /veh A4GNT (11735810_at) / RFU PRB3 (11715151_x_at) / Fold change /veh PRB3 (11715151_x_at) / RFU TUBB4B (11761932_at) / Fold change /veh TUBB4B (11761932_at) / RFU CAPN14 (11732068_a_at) / Fold change /veh CAPN14 (11732068_a_at) / RFU TMCC2 (11721928_a_at) / Fold change /veh TMCC2 (11721928_a_at) / RFU IRGQ (11745062_a_at) / Fold change /veh IRGQ (11745062_a_at) / RFU FAM174B (11720279_a_at) / Fold change /veh FAM174B (11720279_a_at) / RFU TMPRSS4 (11748680_a_at) / Fold change /veh TMPRSS4 (11748680_a_at) / RFU FAM212B (11763350_a_at) / Fold change /veh FAM212B (11763350_a_at) / RFU PLEKHG5 (11743358_a_at) / Fold change /veh PLEKHG5 (11743358_a_at) / RFU ZSCAN30 (11745921_a_at) / Fold change /veh ZSCAN30 (11745921_a_at) / RFU CMKLR1 (11741424_a_at) / Fold change /veh CMKLR1 (11741424_a_at) / RFU LOC101060620 /// MAPK8IP1 (11723275_at) / Fold change /veh LOC101060620 /// MAPK8IP1 (11723275_at) / RFU SPTSSB (11747773_x_at) / Fold change /veh SPTSSB (11747773_x_at) / RFU PRSS12 (11739890_at) / Fold change /veh PRSS12 (11739890_at) / RFU BIN1 (11741810_x_at) / Fold change /veh BIN1 (11741810_x_at) / RFU WNT11 (11732464_a_at) / Fold change /veh WNT11 (11732464_a_at) / RFU C10orf10 (11716521_a_at) / Fold change /veh C10orf10 (11716521_a_at) / RFU C5orf56 (11738089_at) / Fold change /veh C5orf56 (11738089_at) / RFU CYB561 (11721691_x_at) / Fold change /veh CYB561 (11721691_x_at) / RFU ANKRD19P (11752326_a_at) / Fold change /veh ANKRD19P (11752326_a_at) / RFU OR2T12 /// OR2T33 /// OR2T8 (11738714_s_at) / Fold change /veh OR2T12 /// OR2T33 /// OR2T8 (11738714_s_at) / RFU VCAN (11748164_a_at) / Fold change /veh VCAN (11748164_a_at) / RFU JSRP1 (11732532_at) / Fold change /veh JSRP1 (11732532_at) / RFU KRTAP10-11 (11738290_x_at) / Fold change /veh KRTAP10-11 (11738290_x_at) / RFU MYO3A (11730013_a_at) / Fold change /veh MYO3A (11730013_a_at) / RFU EBF3 (11725865_a_at) / Fold change /veh EBF3 (11725865_a_at) / RFU CAMK2N1 (11719241_x_at) / Fold change /veh CAMK2N1 (11719241_x_at) / RFU C5orf56 (11738088_a_at) / Fold change /veh C5orf56 (11738088_a_at) / RFU OLFML3 (11715873_a_at) / Fold change /veh OLFML3 (11715873_a_at) / RFU LOC100653217 /// NTM (11731650_a_at) / Fold change /veh LOC100653217 /// NTM (11731650_a_at) / RFU MAPK11 (11762145_a_at) / Fold change /veh MAPK11 (11762145_a_at) / RFU FIZ1 (11724087_x_at) / Fold change /veh FIZ1 (11724087_x_at) / RFU OASL (11726364_x_at) / Fold change /veh OASL (11726364_x_at) / RFU SOX15 (11748057_x_at) / Fold change /veh SOX15 (11748057_x_at) / RFU CD79A (11719716_a_at) / Fold change /veh CD79A (11719716_a_at) / RFU HIST1H1D (11736915_at) / Fold change /veh HIST1H1D (11736915_at) / RFU CASKIN2 (11723855_a_at) / Fold change /veh CASKIN2 (11723855_a_at) / RFU LOC730098 (11760151_x_at) / Fold change /veh LOC730098 (11760151_x_at) / RFU OR4N2 (11742367_at) / Fold change /veh OR4N2 (11742367_at) / RFU PRRT2 (11749266_a_at) / Fold change /veh PRRT2 (11749266_a_at) / RFU SNX32 (11753110_a_at) / Fold change /veh SNX32 (11753110_a_at) / RFU CDHR5 (11726645_a_at) / Fold change /veh CDHR5 (11726645_a_at) / RFU RCAN1 (11760418_a_at) / Fold change /veh RCAN1 (11760418_a_at) / RFU FAM167A (11723789_a_at) / Fold change /veh FAM167A (11723789_a_at) / RFU FAM26E (11764081_at) / Fold change /veh FAM26E (11764081_at) / RFU ISYNA1 (11749810_s_at) / Fold change /veh ISYNA1 (11749810_s_at) / RFU ACY1 (11761880_at) / Fold change /veh ACY1 (11761880_at) / RFU 11764098_at / Fold change /veh 11764098_at / RFU SAMD14 (11745864_x_at) / Fold change /veh SAMD14 (11745864_x_at) / RFU NPB (11741838_a_at) / Fold change /veh NPB (11741838_a_at) / RFU TMPRSS6 (11731388_a_at) / Fold change /veh TMPRSS6 (11731388_a_at) / RFU KRTAP10-2 (11738614_at) / Fold change /veh KRTAP10-2 (11738614_at) / RFU ARHGAP8 /// PRR5-ARHGAP8 (11727945_x_at) / Fold change /veh ARHGAP8 /// PRR5-ARHGAP8 (11727945_x_at) / RFU KRTAP5-7 /// NADSYN1 (11734609_at) / Fold change /veh KRTAP5-7 /// NADSYN1 (11734609_at) / RFU RASL12 (11751679_a_at) / Fold change /veh RASL12 (11751679_a_at) / RFU CDKN2B (11736163_a_at) / Fold change /veh CDKN2B (11736163_a_at) / RFU PRF1 (11729649_at) / Fold change /veh PRF1 (11729649_at) / RFU, ZNF638 /// ZNF638-IT1 / Fold change vs veh, ZNF638 /// ZNF638-IT1 / RFU, PANK3 / Fold change vs veh, PANK3 / RFU, SH3YL1 / Fold change vs veh, SH3YL1 / RFU, ZEB2 / Fold change vs veh, ZEB2 / RFU, NRIP1 / Fold change vs veh, NRIP1 / RFU, PTTG1IP / Fold change vs veh, PTTG1IP / RFU, CAPN2 / Fold change vs veh, CAPN2 / RFU, MED14 / Fold change vs veh, MED14 / RFU, SNORA58 / Fold change vs veh, SNORA58 / RFU, C1orf63 / Fold change vs veh, C1orf63 / RFU, LRRFIP1 / Fold change vs veh, LRRFIP1 / RFU, NDUFAF7 / Fold change vs veh, NDUFAF7 / RFU, SLC12A2 / Fold change vs veh, SLC12A2 / RFU, IBTK / Fold change vs veh, IBTK / RFU, ESF1 / Fold change vs veh, ESF1 / Fold change vs veh, TMEM50B / RFU, TAOK1 / Fold change vs veh, TAOK1 / RFU, ACBD3 / Fold change vs veh, ACBD3 / RFU, TMA16 / Fold change vs veh, TMA16 / RFU, RWDD3 / Fold change vs veh, RWDD3 / RFU, BCAT1 / Fold change vs veh, BCAT1 / RFU, EDEM3 / Fold change vs veh, EDEM3 / RFU, TMEM33 / Fold change vs veh, TMEM33 / RFU, WDR75 / Fold change vs veh, WDR75 / RFU, AHCTF1 / Fold change vs veh, AHCTF1 / RFU, TFRC / Fold change vs veh, TFRC / RFU, ZDHHC17 / Fold change vs veh, ZDHHC17 / RFU, NOM1 / Fold change vs veh, NOM1 / RFU, ARL8B / Fold change vs veh, ARL8B / RFU, ZBTB11 / Fold change vs veh, ZBTB11 / RFU, TAMM41 / Fold change vs veh, TAMM41 / RFU, KIAA1704 /// LOC100996395 / Fold change vs veh, KIAA1704 /// LOC100996395 / RFU, ING1 / Fold change vs veh, ING1 / RFU, TRMT61B / Fold change vs veh, TRMT61B / RFU, FUBP3 / Fold change vs veh, FUBP3 / RFU, TP53 / Fold change vs veh, TP53 / RFU, TNKS2 / Fold change vs veh, TNKS2 / RFU, ZFP14 / Fold change vs veh, ZFP14 / RFU, ACTR2 / Fold change vs veh, ACTR2 / RFU, PPP3R1 / Fold change vs veh, PPP3R1 / RFU, PIK3R1 / Fold change vs veh, PIK3R1 / RFU, HNRNPA1 / Fold change vs veh, HNRNPA1 / RFU, RNF170 / Fold change vs veh, RNF170 / RFU, ZNF28 / Fold change vs veh, ZNF28 / RFU, RNGTT / Fold change vs veh, RNGTT / RFU, OGT / Fold change vs veh, OGT / RFU, BRD1 / Fold change vs veh, BRD1 / RFU, MARS / Fold change vs veh, MARS / RFU, ZNF655 / Fold change vs veh, ZNF655 / RFU, FAHD1 / Fold change vs veh, FAHD1 / RFU, BDP1 / Fold change vs veh, BDP1 / RFU, LRRCC1 / Fold change vs veh, LRRCC1 / RFU, ARID1A / Fold change vs veh, ARID1A / RFU, ZNF146 / Fold change vs veh, ZNF146 / RFU, ZNF330 / Fold change vs veh, ZNF330 / RFU, GPN3 / Fold change vs veh, GPN3 / RFU, C9orf123 / Fold change vs veh, C9orf123 / RFU, N4BP2L2 / Fold change vs veh, N4BP2L2 / RFU, ARFIP1 / Fold change vs veh, ARFIP1 / RFU, FAM179B / Fold change vs veh, FAM179B / RFU, BCL10 / Fold change vs veh, BCL10 / RFU, UHRF1BP1L / Fold change vs veh, UHRF1BP1L / RFU, BET1 / Fold change vs veh, BET1 / RFU, CNOT2 / Fold change vs veh, CNOT2 / RFU, ZNF268 / Fold change vs veh, ZNF268 / Fold change vs veh, ZNF507 / RFU, DGCR2 / Fold change vs veh, DGCR2 / RFU, WDSUB1 / Fold change vs veh, WDSUB1 / Fold change vs veh, HSP90B1 /// MIR3652 / RFU, ADSS / Fold change vs veh, ADSS / RFU, GK / Fold change vs veh, GK / RFU, ZNF148 / Fold change vs veh, ZNF148 / RFU, TAF9 / Fold change vs veh, TAF9 / RFU, SLC1A5 / Fold change vs veh, SLC1A5 / RFU, SLMO2 / Fold change vs veh, SLMO2 / RFU, ABCC4 / Fold change vs veh, ABCC4 / RFU, LOC101060439 /// RAP1B / Fold change vs veh, LOC101060439 /// RAP1B / RFU, RFX7 / Fold change vs veh, RFX7 / RFU, GTPBP10 / Fold change vs veh, GTPBP10 / RFU, CNEP1R1 / Fold change vs veh, CNEP1R1 / RFU, BIVM-ERCC5 /// ERCC5 / Fold change vs veh, BIVM-ERCC5 /// ERCC5 / RFU, ILF3 / Fold change vs veh, ILF3 / RFU 11762660_at / Fold change /veh 11762660_at / RFU VCAN (11757783_s_at) / Fold change /veh VCAN (11757783_s_at) / RFU DDX43 (11728927_at) / Fold change /veh DDX43 (11728927_at) / RFU KRT8 (11758188_x_at) / Fold change /veh KRT8 (11758188_x_at) / RFU NKD1 (11759106_at) / Fold change /veh NKD1 (11759106_at) / RFU SRD5A1 (11742802_a_at) / Fold change /veh SRD5A1 (11742802_a_at) / RFU TPSAB1 /// TPSB2 (11721975_s_at) / Fold change /veh TPSAB1 /// TPSB2 (11721975_s_at) / RFU GSTM3 (11746129_a_at) / Fold change /veh GSTM3 (11746129_a_at) / RFU IL23R (11737362_x_at) / Fold change /veh IL23R (11737362_x_at) / RFU TMEM51 (11727254_a_at) / Fold change /veh TMEM51 (11727254_a_at) / RFU PIWIL2 (11732686_x_at) / Fold change /veh PIWIL2 (11732686_x_at) / RFU ORM1 (11744905_x_at) / Fold change /veh ORM1 (11744905_x_at) / RFU CCDC152 (11743942_at) / Fold change /veh CCDC152 (11743942_at) / RFU ECM1 (11717891_a_at) / Fold change /veh ECM1 (11717891_a_at) / RFU IL23R (11748794_a_at) / Fold change /veh IL23R (11748794_a_at) / RFU TNFAIP8L3 (11732012_x_at) / Fold change /veh TNFAIP8L3 (11732012_x_at) / RFU MBOAT4 (11741988_at) / Fold change /veh MBOAT4 (11741988_at) / RFU 11764193_at / Fold change /veh 11764193_at / RFU TMEM53 (11763286_at) / Fold change /veh TMEM53 (11763286_at) / RFU MAGEB2 (11727129_at) / Fold change /veh MAGEB2 (11727129_at) / RFU TMEM200A (11744735_a_at) / Fold change /veh TMEM200A (11744735_a_at) / RFU CCDC152 (11751479_a_at) / Fold change /veh CCDC152 (11751479_a_at) / RFU FAM211A (11726209_a_at) / Fold change /veh FAM211A (11726209_a_at) / RFU RGS16 (11746705_a_at) / Fold change /veh RGS16 (11746705_a_at) / RFU VCAN (11755009_s_at) / Fold change /veh VCAN (11755009_s_at) / RFU RHOB (11743442_s_at) / Fold change /veh RHOB (11743442_s_at) / RFU RGS16 (11720943_a_at) / Fold change /veh RGS16 (11720943_a_at) / RFU RGS16 (11720944_at) / Fold change /veh RGS16 (11720944_at) / RFU, VPS4B / Fold change vs veh, VPS4B / RFU, CREB1 / Fold change vs veh, CREB1 / RFU, DNAJC13 / Fold change vs veh, DNAJC13 / RFU, GNAQ / Fold change vs veh, GNAQ / RFU, CDK5R1 / Fold change vs veh, CDK5R1 / RFU, ZRANB3 / Fold change vs veh, ZRANB3 / RFU, CUL4A / Fold change vs veh, CUL4A / RFU, CCNY / Fold change vs veh, CCNY / RFU, UFL1 / Fold change vs veh, UFL1 / RFU, COG3 / Fold change vs veh, COG3 / RFU, DIAPH2 / Fold change vs veh, DIAPH2 / RFU, SKA2 / Fold change vs veh, SKA2 / RFU, AFF3 / Fold change vs veh, AFF3 / RFU, LMF1 / Fold change vs veh, LMF1 / RFU, IPO11 / Fold change vs veh, IPO11 / RFU, DFFB / Fold change vs veh, DFFB / RFU, FOXP1 / Fold change vs veh, FOXP1 / RFU, CARD8 / Fold change vs veh, CARD8 / RFU, STRN3 / Fold change vs veh, STRN3 / RFU, ADK / Fold change vs veh, ADK / RFU, RASSF2 / Fold change vs veh, RASSF2 / RFU, WIPF1 / Fold change vs veh, WIPF1 / RFU, LARP1B / Fold change vs veh, LARP1B / RFU, RASA1 / Fold change vs veh, RASA1 / RFU, RB1 / Fold change vs veh, RB1 / RFU, PPFIA1 / Fold change vs veh, PPFIA1 / RFU, MAT2A / Fold change vs veh, MAT2A / RFU, CCT5 / Fold change vs veh, CCT5 / RFU, WDR92 / Fold change vs veh, WDR92 / RFU, CUX1 / Fold change vs veh, CUX1 / RFU, TTC7A / Fold change vs veh, TTC7A / RFU, TMEM135 / Fold change vs veh, TMEM135 / RFU, DEPTOR / Fold change vs veh, DEPTOR / RFU, CPM / Fold change vs veh, CPM / RFU, DNAJB6 / Fold change vs veh, DNAJB6 / RFU, CACNA2D3 / Fold change vs veh, CACNA2D3 / RFU, DTX4 / Fold change vs veh, DTX4 / RFU, TFCP2 / Fold change vs veh, TFCP2 / RFU, GMCL1 /// GMCL1P1 / Fold change vs veh, GMCL1 /// GMCL1P1 / RFU, AEBP2 / Fold change vs veh, AEBP2 / RFU, SNHG1 /// SNORD22 /// SNORD25 /// SNORD26 /// SNORD27 /// SNORD28 /// SNORD29 /// SNORD31 / Fold change vs veh, SNHG1 /// SNORD22 /// SNORD25 /// SNORD26 /// SNORD27 /// SNORD28 /// SNORD29 /// SNORD31 / Fold change (Aza/veh), C12orf56 (ProbeSet 11735607_a_at) / Fold change (ACY-1035/veh), C12orf56 (ProbeSet 11735607_a_at) / Fold change (Aza/veh), FGFR1OP (ProbeSet 11751329_s_at) / Fold change (ACY-1035/veh), FGFR1OP (ProbeSet 11751329_s_at) / Fold change (Aza/veh), VPS36 (ProbeSet 11739960_a_at) / Fold change (ACY-1035/veh), VPS36 (ProbeSet 11739960_a_at) / RFU SYPL1 (11715823_x_at) / Fold change /veh SYPL1 (11715823_x_at) / RFU IGFBP7 (11715501_s_at) / Fold change /veh IGFBP7 (11715501_s_at) / RFU REEP3 (11722064_at) / Fold change /veh REEP3 (11722064_at) / RFU IGLL1 (11728026_x_at) / Fold change /veh IGLL1 (11728026_x_at): dose or concentration left out as unconfirmed
Conditions: MV-4-11 cells, 48 hours

Nc1ncn([C@@H]2O[C@H](CO)[C@@H](O)[C@H]2O)c(=O)n1 [azacitidine]
RFU MAGEB2 (11727129_at): 14.25 RFU
